Test results taken from US7906541B2, “Process to prepare new substituted 1H-benzo[d]imidazol-2(3H)-ones, new intermediates and their use as BACE 1 inhibitors” (Universite Paul Cezanne-Aix Marseille III, priority 2008, dated 2011).

In order of falling melting point:
1. CS/C=C(/C)n1c(=O)n(C)c2ccc(C(F)(F)F)cc21 [Example 9, 1-methyl-3-[(1Z)-1-(methylsulfanyl)prop-1-en-2-yl]-5-(trifluoromethyl)-1,3-dihydro-2H-benzimidazol-2-one]  194 °C
2. O=c1[nH]c2ccccc2n1Cc1ccccc1 [Example 11, 1-benzyl-1,3-dihydro-2H-benzimidazol-2-one]  194 °C
3. CS/C=C(/C)n1c(=O)n(Cc2cc(C(F)(F)F)cc(C(F)(F)F)c2)c2ccccc21 [Example 6, 1-[3,5-bis(trifluoromethyl)benzyl]-3-[(1Z)-1-(methylsulfanyl)prop-1-en-2-yl]-1,3-dihydro-2H-benzimidazol-2-one]  148 °C
4. CS/C=C(/C)n1c(=O)n(C)c2cc(F)ccc21 [Example 10, 5-fluoro-3-methyl-1-[(1Z)-1-(methylsulfanyl)prop-1-en-2-yl]-1,3-dihydro-2H-benzimidazol-2-one]  110 °C
5. CCn1c(=O)n(/C(C)=C\SC)c2ccccc21 [Example 5, 1-ethyl-3-[(1Z)-1-(methylsulfanyl)prop-1-en-2-yl]-1,3-dihydro-2H-benzimidazol-2-one]  74 °C

With CS/C=C(/C)n1c(=O)n(C)c2ccccc21 [Example 1, 1-methyl-3-[(1Z)-1-(methylsulfanyl)prop-1-en-2-yl]-1,3-dihydro-2H-benzimidazol-2-one] the melting point was 66 °C (dec.).
In the case of CS/C=C(/C)n1c(=O)n(Cc2ccccc2)c2ccccc21 [Example 2, 1-benzyl-3-[(1Z)-1-(methylsulfanyl)prop-1-en-2-yl]-1,3-dihydro-2H-benzimidazol-2-one], the melting point is reported as 227 °C (dec.).
